In patent publication US20240228488A1 (TAKEDA PHARMACEUTICAL COMPANY LIMITED, priority 2021, published 2024) one finds IC90 and EC50 data, which are given here for 8 molecules.

The target in test [1] is T1, plasma kallikrein (Homo sapiens, UniProt P03952).
T1 construct: from tissue
Kind of test: Neat human plasma assay, FXIIa contact pathway-activated, PFR-AMC substrate. In kind it is biochemical. The note with it: citrated human plasma 78% final, 10 nM human FXIIa, 100 μM PFR-AMC; read-out: Human Plasma Assay: IC90. In a few lines: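 Citrated human plasma (78% final) with compound, contact-activated by 10 nM human FXIIa in pKal buffer pH 7.5, with 100 μM PFR-AMC. Fluorescence (360/480 nm) followed 5 min at room temperature; rates versus concentration fitted by 4-parameter equation for IC50/IC90.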

The target in test [2] is human activated kallikrein enzyme (Homo sapiens, UniProt P03952). Kind of test: Plasma kallikrein inhibition, fluorogenic PFR-AMC substrate, 500 pM activated kallikrein format. In kind it is biochemical. The note with it: 500 pM activated kallikrein, 300 uM PFR-AMC, 30 min preincubation, 10 min reaction; read-out: Primary Dose Response Assay: Average EC50. In a few lines: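 500 pM enz + cpd, 30 min RT preinc; start w/ PFR-AMC 300 uM; 10 min RT; Ex380/Em460. Buffer: Tris 20 mM pH 7.5, EDTA 1 mM, NaCl 150 mM, PEG-400 0.1%, Triton 0.1%. EC50.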
Chain of human activated kallikrein enzyme (P03952 391-638 limits assumed): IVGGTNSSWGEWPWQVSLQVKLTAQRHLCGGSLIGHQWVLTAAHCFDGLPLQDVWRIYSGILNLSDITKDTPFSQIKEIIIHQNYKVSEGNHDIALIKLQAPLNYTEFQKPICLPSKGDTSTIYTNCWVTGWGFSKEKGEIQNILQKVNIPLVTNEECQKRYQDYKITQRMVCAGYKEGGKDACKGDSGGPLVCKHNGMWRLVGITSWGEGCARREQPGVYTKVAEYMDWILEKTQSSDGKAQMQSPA
Chain of human activated kallikrein enzyme (P03952 20-390 partner limits assumed): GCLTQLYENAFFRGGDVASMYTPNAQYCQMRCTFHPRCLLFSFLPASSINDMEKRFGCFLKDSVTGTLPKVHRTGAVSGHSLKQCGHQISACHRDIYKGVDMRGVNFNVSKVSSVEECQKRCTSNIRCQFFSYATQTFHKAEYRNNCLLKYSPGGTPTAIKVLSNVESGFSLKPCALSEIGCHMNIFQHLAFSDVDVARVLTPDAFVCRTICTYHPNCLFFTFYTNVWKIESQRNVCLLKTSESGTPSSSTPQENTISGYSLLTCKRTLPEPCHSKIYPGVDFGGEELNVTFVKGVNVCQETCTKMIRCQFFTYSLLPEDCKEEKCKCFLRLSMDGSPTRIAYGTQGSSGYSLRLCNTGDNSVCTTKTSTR

T1 sequence (P03952 391-638 limits assumed): as the sequence (P03952 391-638 limits assumed) above
T1 sequence (P03952 20-390 partner limits assumed): as the sequence (P03952 20-390 partner limits assumed) above

For `Cc1ccnc([C@H]2C[C@@H]2C(=O)Nc2cc(OC(C)c3cn4cc(C5CC5)cc(N5CC(=O)N(C)C5=O)c4n3)nc(C)n2)n1` (stereo partly drawn) [Example 552, (1S,2S)-N-(6-(1-(6-cyclopropyl-8-(3-methyl-2,4-dioxoimidazolidin-1-yl)imidazo[1,2-a]pyridin-2-yl)ethoxy)-2-methylpyrimidin-4-yl)-2-(4-methylpyrimidin-2-yl)cyclopropane-1-carboxamide], in test [1], the 90% effect concentration (IC90) is 1500 to 10000 nM. The EC50 in test [2] is below 1 nM.

On to `Cc1ccnc([C@@H]2C[C@H]2C(=O)Nc2cc(OCc3cn4cc(C5CC5)cc(N5CC(=O)N(C)C5=O)c4n3)ncn2)n1` (racemic) [Example 28, rac-(1S*,2S*)—N-(6-((6-cyclopropyl-8-(3-methyl-2,4-dioxoimidazolidin-1-yl)imidazo[1,2-a]pyridin-2-yl)methoxy)pyrimidin-4-yl)-2-(4-methylpyrimidin-2-yl)cyclopropane-1-carboxamide], for which the IC90 in test [1] fell in the range of 400 to 1500 nM. Also, the EC50 in test [2] was below 1 nM.

For the molecule `Cc1ccnc([C@@H]2[C@@H](C(=O)Nc3cc(NCc4cn5cc(C6CC6)cc(N6CC(=O)N(C)C6=O)c5n4)ncn3)C2(F)F)n1` (racemic) [Example 494, rac-(1S*,3S*)-N-(6-(((6-cyclopropyl-8-(3-methyl-2,4-dioxoimidazolidin-1-yl)imidazo[1,2-a]pyridin-2-yl)methyl)amino)pyrimidin-4-yl)-2,2-difluoro-3-(4-methylpyrimidin-2-yl)cyclopropane-1-carboxamide], in test [1], the IC90 is below 400 nM. Moreover, in test [2], the EC50 was below 1 nM.

For the molecule `Cc1ccnc([C@H]2C[C@@H]2C(=O)Nc2nc(NCc3cn4cc(C5CC5)cc(N5CC(=O)N(C)C5=O)c4n3)cc(C3CC3)n2)n1` (racemic) [Example 539, rac-(1S*,2S*)—N-(4-cyclopropyl-6-(((6-cyclopropyl-8-(3-methyl-2,4-dioxoimidazolidin-1-yl)imidazo[1,2-a]pyridin-2-yl)methyl)amino)pyrimidin-2-yl)-2-(4-methylpyrimidin-2-yl)cyclopropane-1-carboxamide], the concentration for an effect of 90% (IC90) in test [1] lay in the range of 1500 to 10000 nM. For the same molecule, in test [2], the EC50 is below 1 nM.

Regarding `O=C(Nc1cc(NCc2cn3cc(C4CC4)cc(N4CCN(CC5CC5)CC4)c3n2)ccn1)[C@H]1C[C@@H]1c1cccc(Cl)c1` [Example 601, (1S,2S)-2-(3-chlorophenyl)-N-(4-(((6-cyclopropyl-8-(4-(cyclopropylmethyl)piperazin-1-yl)imidazo[1,2-a]pyridin-2-yl)methyl)amino)pyridin-2-yl)cyclopropane-1-carboxamide], in test [1], the IC90 was in the range of 400 to 1500 nM. In test [2], the EC50 was below 1 nM.

Regarding `Cc1ccnc([C@H]2C[C@@H]2C(=O)Nc2cc(N[C@H](C)c3cn4cc(C5CC5)cc(N5CC(=O)N(C)C5=O)c4n3)nc(C)n2)n1` (single isomer, unassigned) [Example 456], in test [1], the IC90 was below 400 nM. The EC50 in test [2] is below 1 nM.

As for `O=C(Nc1cc(NCc2cn3cc(C4CC4)ccc3n2)nc(=O)[nH]1)[C@H]1C[C@@H]1c1cccc(Cl)c1` [Example 296, (1S,2S)-2-(3-chlorophenyl)-N-(6-(((6-cyclopropylimidazo[1,2-a]pyridin-2-yl)methyl)amino)-2-oxo-2,3-dihydropyrimidin-4-yl)cyclopropane-1-carboxamide], the IC90 in test [1] fell in the range of 1500 to 10000 nM. The EC50 in test [2] is below 1 nM.

As for `Cc1ccnc([C@H]2C[C@@H]2C(=O)Nc2nc(C3CC3)nc(N(C)Cc3cn4cc(C5CC5)cc(N5CC(=O)NC5=O)c4n3)n2)n1` (racemic) [Example 522, rac-(1S*,2S*)-N-(4-cyclopropyl-6-(((6-cyclopropyl-8-(2,4-dioxoimidazolidin-1-yl)imidazo[1,2-a]pyridin-2-yl)methyl)(methyl)amino)-1,3,5-triazin-2-yl)-2-(4-methylpyrimidin-2-yl)cyclopropane-1-carboxamide], in test [1], the IC90 lay within 400 to 1500 nM. Moreover, the EC50 in test [2] was below 1 nM.
